Results reported in the NIST ThermoML archive (doi:10.1016/j.fluid.2009.11.030).

Experiment: excess molar enthalpy (molar enthalpy of mixing); xn = mol fraction of the nth substance listed
Conditions: 101.3 kPa, Liquid, Isothermal microcalorimeter

CCOC(=O)CC(=O)OCC [diethyl 1,3-propanedioate] + CCCCO
excess molar enthalpy [kcal/mol]
Conditions	288.15 K	298.15 K	313.15 K	328.15 K	338.15 K	348.15 K
x1 = 0.0498	0.123	0.133	0.146	0.153	0.156	0.152
x1 = 0.1085	0.239	0.254	0.285	–	0.308	0.308
x1 = 0.1482	0.2978	0.3164	0.354	0.3676	0.3853	0.3956
x1 = 0.1991	0.3619	0.3858	0.4369	0.4627	0.472	0.4723
x1 = 0.2499	0.4099	0.4383	0.4947	0.5249	0.533	0.5418
x1 = 0.3003	0.4496	0.4828	0.544	0.576	0.587	0.5882
x1 = 0.3501	0.4754	0.5177	0.5789	0.6128	0.6219	0.6252
x1 = 0.3988	0.4967	0.5378	0.6006	0.6315	0.6429	0.6482
x1 = 0.4501	0.5096	0.5507	0.6128	0.6424	0.6539	0.6511
x1 = 0.5	0.5134	0.5557	0.6104	0.6415	0.6513	0.6487
x1 = 0.548	0.51	0.5511	0.6028	0.6322	0.6379	0.6322
x1 = 0.5984	0.5005	0.5337	0.582	0.6047	0.6121	0.6119
x1 = 0.6512	0.4742	0.5086	0.5495	0.5705	0.575	0.5693
x1 = 0.6965	0.4498	0.4763	0.51	0.5256	0.5313	0.5239
x1 = 0.749	0.4037	0.4264	0.4598	0.4627	0.4625	0.457
x1 = 0.7985	0.3516	0.3683	0.3896	0.397	0.3963	0.3922
x1 = 0.8502	0.282	0.2949	0.3109	0.3107	0.3162	0.306
x1 = 0.8981	0.203	0.213	0.226	0.216	0.232	0.224
x1 = 0.948	0.109	0.114	0.123	0.111	0.127	0.122

CCOC(=O)CC(=O)OCC [diethyl 1,3-propanedioate] + CC(C)CO
excess molar enthalpy [kcal/mol]
Conditions	288.15 K	298.15 K	313.15 K	328.15 K	338.15 K	348.15 K
x1 = 0.0502	0.146	0.146	0.165	0.168	0.166	0.159
x1 = 0.0983	0.252	0.265	0.293	0.3	0.298	0.296
x1 = 0.1494	0.3339	0.3583	0.396	0.4001	0.4065	0.4054
x1 = 0.2006	0.4018	0.4238	0.4785	0.4986	0.4993	0.4947
x1 = 0.2484	0.4517	0.4907	0.5428	0.5531	0.5588	0.5578
x1 = 0.2989	0.4924	0.537	0.588	0.613	0.6095	0.6121
x1 = 0.3486	0.5217	0.5636	0.6226	0.6508	0.6477	0.6456
x1 = 0.3972	0.5413	0.5887	0.6475	0.662	0.6687	0.6649
x1 = 0.4484	0.5531	0.5985	0.6542	0.6752	0.674	0.6721
x1 = 0.4981	0.5598	0.6076	0.6513	0.6718	0.6699	0.6654
x1 = 0.5504	0.5535	0.5951	0.6367	0.6546	0.6537	0.6451
x1 = 0.6006	0.533	0.5739	0.6142	0.6224	0.6178	0.6171
x1 = 0.6485	0.5103	0.5473	0.5801	0.5863	0.5829	0.5772
x1 = 0.6985	0.4761	0.5029	0.538	0.5354	0.5261	0.5272
x1 = 0.7508	0.4223	0.4558	0.4775	0.4711	0.4606	0.4622
x1 = 0.8	0.3659	0.3905	0.4065	0.3972	0.3881	0.3846
x1 = 0.8514	0.295	0.31	0.3246	0.3131	0.304	0.297
x1 = 0.899	0.2	0.218	0.236	0.216	0.224	0.211
x1 = 0.9485	0.115	0.111	0.133	0.119	0.124	0.116
